This is an account of results in patent US12098148B2, “Therapeutic compounds” (C4X Discovery Limited, priority 2018, dated 2024).

The subject of experiment [1] is NQO1 mRNA in BEAS-2B cells. Nature of the experiment: Beas2B NQO1 mRNA cell based assay. Details: species or system human. To be noted: 24 h compound treatment, increase in NQO1 mRNA vs vehicle (0.1% DMSO), read-out: EC50. In a few lines: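 Relative NQO1 transcript level derived by ΔΔCT with human β-actin as internal control, using direct-lysate one-step RT-qPCR. Cells were BEAS-2B, plated overnight then treated with compound for 24 h.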

The target in experiment [2] is human KEAP1 (N-term, residues 321-609) (Homo sapiens, UniProt Q14145). Nature of the experiment: biochemical.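 Note: fluorescence polarization competition assay of Kelch domain binding to NRF2, 12-point 1:3 dilution series from 10 µM, read after 1 h at room temperature, floor 10 nM.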
Protocol: Biological Assays KEAP1 Kelch Fluorescence Polarization (FP) Assay Method
Inhibition of the Kelch domain-NRF2 interaction was determined using a fluorescence polarization-based competition assay in a black 384-well microplate. Compounds were tested at a starting concentration of 10 μM serially diluted 1:3 to generate a 12-point dose response curve on the Biomek FX robot.
After 1 h at room temperature, fluorescence polarization (excitation 470 nm/emission 530 nm) was measured using an Envision plate reader. IC50 values were determined by fitting the data to a four parameter logistic fit using XLfit or XE Runner within ActivityBase.

Like-named read-outs stand apart in the source and are kept apart here.

Chain of human KEAP1 (N-term, residues 321-609) (Q14145 321-609): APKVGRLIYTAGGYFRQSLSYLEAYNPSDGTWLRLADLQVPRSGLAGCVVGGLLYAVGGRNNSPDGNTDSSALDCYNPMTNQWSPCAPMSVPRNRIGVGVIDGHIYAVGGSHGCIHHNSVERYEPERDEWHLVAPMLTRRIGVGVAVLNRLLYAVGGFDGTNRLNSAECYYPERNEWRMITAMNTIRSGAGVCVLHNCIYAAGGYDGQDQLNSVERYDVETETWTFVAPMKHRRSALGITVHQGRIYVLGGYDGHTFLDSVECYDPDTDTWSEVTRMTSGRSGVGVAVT

In the case of `CC[C@]1(C(=O)O)CCC[C@H]1C(=O)N1CCc2c(Cl)ccc(OCc3nnn(C)c3C(F)F)c2[C@H]1CN1CCCC1=O` [Example 118, (1S,2R)-2-((S)-5-chloro-8-((5-(difluoromethyl)-1-methyl-1H-1,2,3-triazol-4-yl)methoxy)-1-((2-oxopyrrolidin-1-yl)methyl)-1,2,3,4-tetrahydroisoquinoline-2-carbonyl)-1-ethylcyclopentane-1-carboxylic acid], the concentration for a half-maximal effect (EC50) in experiment [1] (Homo sapiens, BEAS-2B, 24 h) was 59 nM. In experiment [2], this compound had an IC50 of 8.4 nM.
As to `Cc1noc(COc2ccc(Cl)c3c2[C@@H](CN2CCCC2=O)N(C(=O)[C@@H]2CCCC[C@]2(C)C(=O)O)CC3)n1` [Example 167, (1S,2R)-2-((S)-5-chloro-8-((3-methyl-1,2,4-oxadiazol-5-yl)methoxy)-1-((2-oxopyrrolidin-1-yl)methyl)-1,2,3,4-tetrahydroisoquinoline-2-carbonyl)-1-methylcyclohexane-1-carboxylic acid], the concentration for a half-maximal effect (EC50) in experiment [1] (Homo sapiens, BEAS-2B, 24 h) stood at 280 nM. The compound also displayed an IC50 in experiment [2] of 16 nM.
The matching figures for `Cn1nnc(COc2ccc(Br)c3c2[C@@H](CN2Cc4ccccc4C2=O)N(C(=O)[C@@H]2CCCC[C@@H]2C(=O)O)CC3)c1C(F)F` [Example 41, (1S,2R)-2-((S)-5-bromo-8-((5-(difluoromethyl)-1-methyl-1H-1,2,3-triazol-4-yl)methoxy)-1-((1-oxoisoindolin-2-yl)methyl)-1,2,3,4-tetrahydroisoquinoline-2-carbonyl)cyclohexane-1-carboxylic acid]: 1.5 nM and 5.2 nM.
`C[C@]1(C(=O)O)CCCC[C@H]1C(=O)N1CCc2c(Cl)ccc(O[C@H]3CCN(S(C)(=O)=O)C3)c2[C@H]1CN1CC2(CC2)CC1=O` [Example 187, (1S,2R)-2-((S)-5-chloro-8-(((S)-1-(methylsulfonyl)pyrrolidin-3-yl)oxy)-1-((6-oxo-5-azaspiro[2.4]heptan-5-yl)methyl)-1,2,3,4-tetrahydroisoquinoline-2-carbonyl)-1-methylcyclohexane-1-carboxylic acid]: in experiment [1] (Homo sapiens, BEAS-2B, 24 h), the 50% effective concentration (EC50) stood at 43 nM. This compound returned an IC50 in experiment [2] of 6 nM.
As for `Cn1nnc2c1CC(Oc1ccc(Cl)c3c1[C@@H](CN1CC4(CC4)CC1=O)N(C(=O)[C@@H]1CCCC[C@]1(C)C(=O)O)CC3)C2` (single isomer, unassigned; isomer 1) [Example 215], the EC50 in experiment [1] came to 550 nM. Moreover, in experiment [2], half-maximal inhibition (IC50) was put at 71 nM.
For the compound `Cn1cc(COc2cccc3c2[C@@H](CN2C(=O)c4ccccc4C2=O)N(C(=O)[C@@H]2CCCC[C@@H]2C(=O)O)CC3)nn1` [Example 9, (1S,2R)-2-((S)-1-((1,3-dioxoisoindolin-2-yl)methyl)-8-((1-methyl-1H-1,2,3-triazol-4-yl)methoxy)-1,2,3,4-tetrahydroisoquinoline-2-carbonyl)cyclohexane-1-carboxylic acid], the half-maximal effective concentration (EC50) in experiment [1] (Homo sapiens, BEAS-2B, 24 h) came out at 24 nM. Besides, the IC50 in experiment [2] is 7.7 nM.
As for `COc1ccc(OCc2cn(C(C)C)nn2)c2c1CCN(C(=O)[C@@H]1CCCC[C@@H]1C(=O)O)[C@@H]2CN1Cc2ccccc2C1=O` [Example 61, (1S,2R)-2-((S)-8-((1-isopropyl-1H-1,2,3-triazol-4-yl)methoxy)-5-methoxy-1-((1-oxoisoindolin-2-yl)methyl)-1,2,3,4-tetrahydroisoquinoline-2-carbonyl)cyclohexane-1-carboxylic acid], the EC50 in experiment [1] (Homo sapiens, BEAS-2B, 24 h) is 63 nM. Besides, the IC50 in experiment [2] was 5.6 nM.
As for `Cn1cnc(COc2ccc(Cl)c3c2[C@@H](CN2Cc4ccccc4C2=O)N(C(=O)[C@@H]2CCCC[C@@H]2C(=O)O)CC3)c1C(F)F` [Example 56, (1S,2R)-2-((S)-5-Chloro-8-((5-(difluoromethyl)-1-methyl-1H-imidazol-4-yl)methoxy)-1-((1-oxoisoindolin-2-yl)methyl)-1,2,3,4-tetrahydroisoquinoline-2-carbonyl)cyclohexane-1-carboxylic acid], in experiment [1] (Homo sapiens, BEAS-2B, 24 h), the half-maximal effective concentration (EC50) came out at 4.8 nM. This compound also had an IC50 in experiment [2] of 4.2 nM.
Consider `C[C@]1(C(=O)O)CCCC[C@H]1C(=O)N1CCc2c(Cl)ccc(OCc3nnn(C4CC4)c3C(F)F)c2[C@H]1CN1CC2(CC2)CC1=O` [Example 172, (1S,2R)-2-((S)-5-chloro-8-((1-cyclopropyl-5-(difluoromethyl)-1H-1,2,3-triazol-4-yl)methoxy)-1-((6-oxo-5-azaspiro [2.4]heptan-5-yl)methyl)-1,2,3,4-tetrahydroisoquinoline-2-carbonyl)-1-methylcyclohexane-1-carboxylic acid], for which the concentration for a half-maximal effect (EC50) in experiment [1] (Homo sapiens, BEAS-2B, 24 h) came out at 1.1 nM. In experiment [2], this compound returned a concentration for half-maximal inhibition (IC50) of 6 nM.
Taken in the same sequence, the figures for `[2H]C1([2H])CC[C@](C)(C(=O)O)[C@H](C(=O)N2CCc3c(Cl)ccc(OCc4nnn(C)c4C(F)F)c3[C@H]2CN2CC3(CC3)CC2=O)C1` [Example 142, (1S,2R)-2-((S)-5-chloro-8-((5-(difluoromethyl)-1-methyl-1H-1,2,3-triazol-4-yl)methoxy)-1-((6-oxo-5-azaspiro[2.4]heptan-5-yl)methyl)-1,2,3,4-tetrahydroisoquinoline-2-carbonyl)-1-methylcyclohexane-1-carboxylic-4,4-d2 acid] were 0.21 nM and 5 nM.
For the compound `COCc1c(COc2ccc(Cl)c3c2[C@@H](CN2C[C@H](C)CC2=O)N(C(=O)[C@@H]2CCCC[C@]2(C)C(=O)O)CC3)nnn1C` [Example 162, (1S,2R)-2-((S)-5-chloro-8-((5-(methoxymethyl)-1-methyl-1H-1,2,3-triazol-4-yl)methoxy)-1-(((R)-4-methyl-2-oxopyrrolidin-1-yl)methyl)-1,2,3,4-tetrahydroisoquinoline-2-carbonyl)-1-methylcyclohexane-1-carboxylic acid], the EC50 in experiment [1] (Homo sapiens, BEAS-2B, 24 h) was found to be 2.4 nM. In experiment [2], inhibition was half-maximal at 6.3 nM (IC50).
On to `Cc1nc(COc2ccc(Br)c3c2[C@@H](CN2Cc4ccccc4C2=O)N(C(=O)[C@@H]2CCCC[C@@H]2C(=O)O)CC3)no1` [Example 24, (1S,2R)-2-((S)-5-Bromo-8-((5-methyl-1,2,4-oxadiazol-3-yl)methoxy)-1-((1-oxoisoindolin-2-yl)methyl)-1,2,3,4-tetrahydroisoquinoline-2-carbonyl)cyclohexane-1-carboxylic acid], for which the EC50 in experiment [1] (Homo sapiens, BEAS-2B, 24 h) turned out to be 41 nM. The compound further came in with an IC50 in experiment [2] of 9.1 nM.
Take `CCn1nnc(COc2ccc(Cl)c3c2[C@@H](CN2CCCC2=O)N(C(=O)[C@@H]2CCC[C@]2(C)C(=O)O)CC3)c1C(F)F` [Example 119, (1S,2R)-2-((S)-5-chloro-8-((5-(difluoromethyl)-1-ethyl-1H-1,2,3-triazol-4-yl)methoxy)-1-((2-oxopyrrolidin-1-yl)methyl)-1,2,3,4-tetrahydroisoquinoline-2-carbonyl)-1-methylcyclopentane-1-carboxylic acid]: in experiment [1] (Homo sapiens, BEAS-2B, 24 h), the EC50 was found to be 18 nM. The same compound registered an IC50 in experiment [2] of 8.1 nM.
Taken in the same sequence, the figures for `Cc1c(COc2c(F)cc(Cl)c3c2[C@@H](CN2CC4(CC4)CC2=O)N(C(=O)[C@@H]2CCCC[C@]2(C)C(=O)O)CC3)nnn1C` [Example 143, (1S,2R)-2-((S)-5-chloro-8-((1,5-dimethyl-1H-1,2,3-triazol-4-yl)methoxy)-7-fluoro-1-((6-oxo-5-azaspiro[2.4]heptan-5-yl)methyl)-1,2,3,4-tetrahydroisoquinoline-2-carbonyl)-1-methylcyclohexane-1-carboxylic acid] were 0.05 nM and 5.2 nM.
As to `Cc1cc(C(=O)NCCOc2cccc3c2[C@@H](CN2C(=O)c4ccccc4C2=O)N(C(=O)[C@@H]2CCCC[C@@H]2C(=O)O)CC3)no1` [Example 1, (1S,2R)-2-((S)-1-((1,3-Dioxoisoindolin-2-yl)methyl)-8-(2-(5-methylisoxazole-3-carboxamido)ethoxy)-1,2,3,4-tetrahydroisoquinoline-2-carbonyl)cyclohexanecarboxylic acid], the EC50 in experiment [1] (Homo sapiens, BEAS-2B, 24 h) is 850 nM. Moreover, the IC50 in experiment [2] stood at 12 nM.
Turning to `C[C@H]1CC(=O)N(C[C@@H]2c3c(OCc4nnn(C)c4C(F)F)ccc(Cl)c3CCN2C(=O)[C@@H]2CCC[C@]2(C)C(=O)O)C1` [Example 116, (1S,2R)-2-((S)-5-chloro-8-((5-(difluoromethyl)-1-methyl-1H-1,2,3-triazol-4-yl)methoxy)-1-(((S)-4-methyl-2-oxopyrrolidin-1-yl)methyl)-1,2,3,4-tetrahydroisoquinoline-2-carbonyl)-1-methylcyclopentane-1-carboxylic acid], the EC50 in experiment [1] (Homo sapiens, BEAS-2B, 24 h) amounted to 1900 nM. In experiment [2], inhibition was half-maximal at 73 nM (IC50).
Take `CCn1ccc(COc2ccc(Cl)c3c2[C@@H](CN2Cc4ccccc4C2=O)N(C(=O)[C@@H]2CCCC[C@@H]2C(=O)O)CC3)n1` [Example 55, (1S,2R)-2-((S)-5-chloro-8-((1-ethyl-1H-pyrazol-3-yl)methoxy)-1-((1-oxoisoindolin-2-yl)methyl)-1,2,3,4-tetrahydroisoquinoline-2-carbonyl)cyclohexane-1-carboxylic acid]: in experiment [1] (Homo sapiens, BEAS-2B, 24 h), the 50% effective concentration (EC50) came to 73 nM. In experiment [2], this compound gave a 50% inhibitory concentration (IC50) of 5.6 nM.
`Cc1ncc(C(=O)N2CC[C@H](Oc3cccc4c3[C@@H](CN3C(=O)c5ccccc5C3=O)N(C(=O)[C@@H]3CCCC[C@@H]3C(=O)O)CC4)C2)s1` [Example 7, (1S,2R)-2-((S)-1-((1,3-dioxoisoindolin-2-yl)methyl)-8-(((S)-1-(2-methylthiazole-5-carbonyl)pyrrolidin-3-yl)oxy)-1,2,3,4-tetrahydroisoquinoline-2-carbonyl)cyclohexane-1-carboxylic acid]: in experiment [1] (Homo sapiens, BEAS-2B, 24 h), the EC50 was 48 nM. Besides, in experiment [2], 6.2 nM corresponded to half-maximal inhibition (IC50).
As to `CCn1cnnc1COc1ccc(Br)c2c1[C@@H](CN1Cc3ccccc3C1=O)N(C(=O)[C@@H]1CCCC[C@@H]1C(=O)O)CC2` [Example 42, (1S,2R)-2-((S)-5-bromo-8-((4-ethyl-4H-1,2,4-triazol-3-yl)methoxy)-1-((1-oxoisoindolin-2-yl)methyl)-1,2,3,4-tetrahydroisoquinoline-2-carbonyl)cyclohexane-1-carboxylic acid], the half-maximal effective concentration (EC50) in experiment [1] (Homo sapiens, BEAS-2B, 24 h) is 18 nM. Also, half-maximal inhibition in experiment [2] (IC50) required 7.9 nM.
